Experimental data from patent publication US20120083522A1, “MODULATION OF INFLAMMATORY RESPONSES BY FACTOR XI” (Isis Pharmaceuitcals, inc., priority 2009, published 2012).

What was measured:
Format in all cases: cell-based
human Factor XI mRNA [1] = assay: Dose-dependent inhibition in HepG2 cells, lipofectin (Example 5); details: 16 hours
Experimental: Cells were plated at a density of 10,000 cells per well and transfected using lipofectin reagent with 2.34 nM, 4.69 nM, 9.375 nM, 18.75 nM, 37.5 nM, and 75 nM concentrations of antisense oligonucleotide, as specified in Table 11. After a treatment period of approximately 16 hours, RNA was isolated from the cells and human Factor XI mRNA levels were measured by quantitative real-time PCR. Human Factor XI primer probe set RTS 2966 was used to measure mRNA levels. Factor XI mRNA levels were adjusted according to total RNA content, as measured by RIBOGREEN®. Results are presented as percent inhibition of human Factor XI, relative to untreated control cells.

human Factor XI mRNA [2] = assay: Dose-dependent inhibition in HepG2 cells, electroporation (Example 4); details: 16 hours
Summary of the method: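 HepG2 cells electroporated with 0.7, 2.2, 6.7 or 20 μM antisense gapmer and harvested after ~16 h. Factor XI mRNA quantified by qRT-PCR (primer probe set RTS 2966), normalised to total RNA (RIBOGREEN). Reported as percent inhibition versus untreated control cells.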

human Factor XI mRNA [3] = assay: Antisense inhibition in HepG2 cells by microwalk gapmers, 8,000 nM, electroporation (Example 14); details: HepG2 cells, 8,000 nM
Summary of the method: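 HepG2 cells electroporated with 8,000 nM 2′-MOE phosphorothioate gapmer (5-10-5, 5-8-5 or 6-8-6). Factor XI mRNA measured after ~24 h by qRT-PCR, normalised to RIBOGREEN total RNA. Reported as percent inhibition versus untreated cells.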

human Factor XI mRNA [4] = assay: Dose-dependent inhibition in HepB3 cells, electroporation (Example 7); details: approx. 16 h
Experimental: The gapmers were also transfected via electroporation and their dose dependent inhibition of human Factor XI mRNA was measured. Cells were plated at a density of 20,000 cells per well and transfected via electroporation with 41.15 nM, 123.457 nM, 370.37 nM, 1111.11 nM, 3333.33 nM, and 10,000 nM concentrations of antisense oligonucleotide, as specified in Table 15. After a treatment period of approximately 16 hours, RNA was isolated from the cells and human Factor XI mRNA levels were measured by quantitative real-time PCR. Human Factor XI primer probe set RTS 2966 was used to measure mRNA levels. Factor XI mRNA levels were adjusted according to total RNA content, as measured by RIBOGREEN®. Results are presented as percent inhibition of human Factor XI, relative to untreated control cells.

human Factor XI mRNA [5] = assay: Dose-dependent inhibition in HepG2 cells, lipofectin (Example 4); details: 16 hours
Summary of the method: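 HepG2 cells at 10,000 per well were lipofectin-transfected with 9.375, 18.75, 37.5 or 75 nM antisense oligonucleotide for about 16 h. Factor XI mRNA was quantified by real-time PCR (primer probe set RTS 2966) and normalised to RIBOGREEN total RNA. Values are percent inhibition versus untreated cells.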

“416825 (antisense GCCCTTCATGTCTAGGTCCA; 5-10-5 gapmer, wing sugar chemistry not given here, further chemistry not given here) [compound 416825]” was tested, and the “percent inhibition of human Factor XI mRNA, relative to untreated control cells” value (human Factor XI mRNA [1]; 2.34 nM) was 4%, the “percent inhibition of human Factor XI mRNA, relative to untreated control cells” value (human Factor XI mRNA [1]; 4.69 nM) was 22% and the “percent inhibition of human Factor XI mRNA, relative to untreated control cells” value (human Factor XI mRNA [1]; 9.375 nM) was 39%. The “percent inhibition of human Factor XI mRNA, relative to untreated control cells” value (human Factor XI mRNA [1]; 18.75 nM) was 57%, the “percent inhibition of human Factor XI mRNA, relative to untreated control cells” value (human Factor XI mRNA [1]; 37.5 nM) was 79% and the “percent inhibition of human Factor XI mRNA, relative to untreated control cells” value (human Factor XI mRNA [1]; 75 nM) was 89%. For the same substance, the “percent inhibition of Factor XI mRNA, relative to untreated control cells” value (human Factor XI mRNA [2]; 0.7 μM) was 27%, the “percent inhibition of Factor XI mRNA, relative to untreated control cells” value (human Factor XI mRNA [2]; 2.2 μM) was 74% and the “percent inhibition of Factor XI mRNA, relative to untreated control cells” value (human Factor XI mRNA [2]; 6.7 μM) was 92%. The “percent inhibition of Factor XI mRNA, relative to untreated control cells” value (human Factor XI mRNA [2]; 20 μM) was 98%, the “Percent inhibition of human Factor XI mRNA levels” value (human Factor XI mRNA [3]) was 90% and the “percent inhibition of human Factor XI mRNA” value (human Factor XI mRNA [4]; 41.15 nM) was 32%. The “percent inhibition of human Factor XI mRNA” value (human Factor XI mRNA [4]; 123.457 nM) was 40%, the “percent inhibition of human Factor XI mRNA” value (human Factor XI mRNA [4]; 370.37 nM) was 48% and the “percent inhibition of human Factor XI mRNA” value (human Factor XI mRNA [4]; 1111.11 nM) was 75%. The “percent inhibition of human Factor XI mRNA” value (human Factor XI mRNA [4]; 3333.33 nM) was 90%, the “percent inhibition of human Factor XI mRNA” value (human Factor XI mRNA [4]; 10000 nM) was 92% and the “percent inhibition of Factor XI mRNA, relative to untreated control cells” value (human Factor XI mRNA [5]; 9.375 nM) was 23%. For the same substance, the “percent inhibition of Factor XI mRNA, relative to untreated control cells” value (human Factor XI mRNA [5]; 18.75 nM) was 52%, the “percent inhibition of Factor XI mRNA, relative to untreated control cells” value (human Factor XI mRNA [5]; 37.5 nM) was 73% and the “percent inhibition of Factor XI mRNA, relative to untreated control cells” value (human Factor XI mRNA [5]; 75 nM) was 92%.
For “416850 (antisense TGCACAGTTTCTGGCAGGCC; 5-10-5 gapmer, wing sugar chemistry not given here, further chemistry not given here) [compound 416850]”, the “percent inhibition of human Factor XI mRNA, relative to untreated control cells” value (human Factor XI mRNA [1]; 2.34 nM) was 24%, the “percent inhibition of human Factor XI mRNA, relative to untreated control cells” value (human Factor XI mRNA [1]; 4.69 nM) was 31% and the “percent inhibition of human Factor XI mRNA, relative to untreated control cells” value (human Factor XI mRNA [1]; 9.375 nM) was 49%. For the same substance, the “percent inhibition of human Factor XI mRNA, relative to untreated control cells” value (human Factor XI mRNA [1]; 18.75 nM) was 55%, the “percent inhibition of human Factor XI mRNA, relative to untreated control cells” value (human Factor XI mRNA [1]; 37.5 nM) was 70% and the “percent inhibition of human Factor XI mRNA, relative to untreated control cells” value (human Factor XI mRNA [1]; 75 nM) was 77%. For the same substance, the “percent inhibition of Factor XI mRNA, relative to untreated control cells” value (human Factor XI mRNA [2]; 0.7 μM) was 14%, the “percent inhibition of Factor XI mRNA, relative to untreated control cells” value (human Factor XI mRNA [2]; 2.2 μM) was 25% and the “percent inhibition of Factor XI mRNA, relative to untreated control cells” value (human Factor XI mRNA [2]; 6.7 μM) was 81%. For the same substance, the “percent inhibition of Factor XI mRNA, relative to untreated control cells” value (human Factor XI mRNA [2]; 20 μM) was 91%, the “Percent inhibition of human Factor XI mRNA levels” value (human Factor XI mRNA [3]) was 91% and the “percent inhibition of human Factor XI mRNA” value (human Factor XI mRNA [4]; 41.15 nM) was 26%. The “percent inhibition of human Factor XI mRNA” value (human Factor XI mRNA [4]; 123.457 nM) was 38%, the “percent inhibition of human Factor XI mRNA” value (human Factor XI mRNA [4]; 370.37 nM) was 51% and the “percent inhibition of human Factor XI mRNA” value (human Factor XI mRNA [4]; 1111.11 nM) was 73%. The “percent inhibition of human Factor XI mRNA” value (human Factor XI mRNA [4]; 3333.33 nM) was 90%, the “percent inhibition of human Factor XI mRNA” value (human Factor XI mRNA [4]; 10000 nM) was 95% and the “percent inhibition of Factor XI mRNA, relative to untreated control cells” value (human Factor XI mRNA [5]; 9.375 nM) was 4%. The “percent inhibition of Factor XI mRNA, relative to untreated control cells” value (human Factor XI mRNA [5]; 18.75 nM) was 30%, the “percent inhibition of Factor XI mRNA, relative to untreated control cells” value (human Factor XI mRNA [5]; 37.5 nM) was 67% and the “percent inhibition of Factor XI mRNA, relative to untreated control cells” value (human Factor XI mRNA [5]; 75 nM) was 84%.
“416858 (antisense ACGGCATTGGTGCACAGTTT; 5-10-5 gapmer, wing sugar chemistry not given here, further chemistry not given here) [compound 416858]” was tested, and the “percent inhibition of human Factor XI mRNA, relative to untreated control cells” value (human Factor XI mRNA [1]; 2.34 nM) was 11%, the “percent inhibition of human Factor XI mRNA, relative to untreated control cells” value (human Factor XI mRNA [1]; 4.69 nM) was 35% and the “percent inhibition of human Factor XI mRNA, relative to untreated control cells” value (human Factor XI mRNA [1]; 9.375 nM) was 46%. The “percent inhibition of human Factor XI mRNA, relative to untreated control cells” value (human Factor XI mRNA [1]; 18.75 nM) was 61%, the “percent inhibition of human Factor XI mRNA, relative to untreated control cells” value (human Factor XI mRNA [1]; 37.5 nM) was 75% and the “percent inhibition of human Factor XI mRNA, relative to untreated control cells” value (human Factor XI mRNA [1]; 75 nM) was 77%. The “percent inhibition of Factor XI mRNA, relative to untreated control cells” value (human Factor XI mRNA [2]; 0.7 μM) was 5%, the “percent inhibition of Factor XI mRNA, relative to untreated control cells” value (human Factor XI mRNA [2]; 2.2 μM) was 20% and the “percent inhibition of Factor XI mRNA, relative to untreated control cells” value (human Factor XI mRNA [2]; 6.7 μM) was 56%. For the same substance, the “percent inhibition of Factor XI mRNA, relative to untreated control cells” value (human Factor XI mRNA [2]; 20 μM) was 86%, the “Percent inhibition of human Factor XI mRNA levels” value (human Factor XI mRNA [3]) was 90% and the “percent inhibition of human Factor XI mRNA” value (human Factor XI mRNA [4]; 41.15 nM) was 23%. The “percent inhibition of human Factor XI mRNA” value (human Factor XI mRNA [4]; 123.457 nM) was 45%, the “percent inhibition of human Factor XI mRNA” value (human Factor XI mRNA [4]; 370.37 nM) was 52% and the “percent inhibition of human Factor XI mRNA” value (human Factor XI mRNA [4]; 1111.11 nM) was 64%. The “percent inhibition of human Factor XI mRNA” value (human Factor XI mRNA [4]; 3333.33 nM) was 87%, the “percent inhibition of human Factor XI mRNA” value (human Factor XI mRNA [4]; 10000 nM) was 92% and the “percent inhibition of Factor XI mRNA, relative to untreated control cells” value (human Factor XI mRNA [5]; 9.375 nM) was 0%. For the same substance, the “percent inhibition of Factor XI mRNA, relative to untreated control cells” value (human Factor XI mRNA [5]; 18.75 nM) was 28%, the “percent inhibition of Factor XI mRNA, relative to untreated control cells” value (human Factor XI mRNA [5]; 37.5 nM) was 54% and the “percent inhibition of Factor XI mRNA, relative to untreated control cells” value (human Factor XI mRNA [5]; 75 nM) was 82%.
With “416864 (antisense GGCAGCGGACGGCATTGGTG; 5-10-5 gapmer, wing sugar chemistry not given here, further chemistry not given here) [compound 416864]” the “percent inhibition of human Factor XI mRNA, relative to untreated control cells” value (human Factor XI mRNA [1]; 2.34 nM) was 13%, the “percent inhibition of human Factor XI mRNA, relative to untreated control cells” value (human Factor XI mRNA [1]; 4.69 nM) was 34% and the “percent inhibition of human Factor XI mRNA, relative to untreated control cells” value (human Factor XI mRNA [1]; 9.375 nM) was 42%. The “percent inhibition of human Factor XI mRNA, relative to untreated control cells” value (human Factor XI mRNA [1]; 18.75 nM) was 65%, the “percent inhibition of human Factor XI mRNA, relative to untreated control cells” value (human Factor XI mRNA [1]; 37.5 nM) was 68% and the “percent inhibition of human Factor XI mRNA, relative to untreated control cells” value (human Factor XI mRNA [1]; 75 nM) was 80%. For the same substance, the “percent inhibition of Factor XI mRNA, relative to untreated control cells” value (human Factor XI mRNA [2]; 0.7 μM) was 32%, the “percent inhibition of Factor XI mRNA, relative to untreated control cells” value (human Factor XI mRNA [2]; 2.2 μM) was 65% and the “percent inhibition of Factor XI mRNA, relative to untreated control cells” value (human Factor XI mRNA [2]; 6.7 μM) was 78%. The “percent inhibition of Factor XI mRNA, relative to untreated control cells” value (human Factor XI mRNA [2]; 20 μM) was 90%, the “Percent inhibition of human Factor XI mRNA levels” value (human Factor XI mRNA [3]) was 88% and the “percent inhibition of human Factor XI mRNA” value (human Factor XI mRNA [4]; 41.15 nM) was 4%. For the same substance, the “percent inhibition of human Factor XI mRNA” value (human Factor XI mRNA [4]; 123.457 nM) was 3%, the “percent inhibition of human Factor XI mRNA” value (human Factor XI mRNA [4]; 370.37 nM) was 6% and the “percent inhibition of human Factor XI mRNA” value (human Factor XI mRNA [4]; 1111.11 nM) was 35%. The “percent inhibition of human Factor XI mRNA” value (human Factor XI mRNA [4]; 3333.33 nM) was 75%, the “percent inhibition of human Factor XI mRNA” value (human Factor XI mRNA [4]; 10000 nM) was 87% and the “percent inhibition of Factor XI mRNA, relative to untreated control cells” value (human Factor XI mRNA [5]; 9.375 nM) was 18%. For the same substance, the “percent inhibition of Factor XI mRNA, relative to untreated control cells” value (human Factor XI mRNA [5]; 18.75 nM) was 43%, the “percent inhibition of Factor XI mRNA, relative to untreated control cells” value (human Factor XI mRNA [5]; 37.5 nM) was 62% and the “percent inhibition of Factor XI mRNA, relative to untreated control cells” value (human Factor XI mRNA [5]; 75 nM) was 78%.
